# Assays:
# IV-cPLA(2) = target: T1, IV-cPLA(2) (Homo sapiens, UniProt P47712); experiment: PLA(2) activity, hydrolysis of bis-BODIPY FL C11-PC in activated U937 cells; format: cell-based; conditions: for inhibition at 0.1 µM: U-937, 0.1 μM
# T1 sequence (P47712 1-749): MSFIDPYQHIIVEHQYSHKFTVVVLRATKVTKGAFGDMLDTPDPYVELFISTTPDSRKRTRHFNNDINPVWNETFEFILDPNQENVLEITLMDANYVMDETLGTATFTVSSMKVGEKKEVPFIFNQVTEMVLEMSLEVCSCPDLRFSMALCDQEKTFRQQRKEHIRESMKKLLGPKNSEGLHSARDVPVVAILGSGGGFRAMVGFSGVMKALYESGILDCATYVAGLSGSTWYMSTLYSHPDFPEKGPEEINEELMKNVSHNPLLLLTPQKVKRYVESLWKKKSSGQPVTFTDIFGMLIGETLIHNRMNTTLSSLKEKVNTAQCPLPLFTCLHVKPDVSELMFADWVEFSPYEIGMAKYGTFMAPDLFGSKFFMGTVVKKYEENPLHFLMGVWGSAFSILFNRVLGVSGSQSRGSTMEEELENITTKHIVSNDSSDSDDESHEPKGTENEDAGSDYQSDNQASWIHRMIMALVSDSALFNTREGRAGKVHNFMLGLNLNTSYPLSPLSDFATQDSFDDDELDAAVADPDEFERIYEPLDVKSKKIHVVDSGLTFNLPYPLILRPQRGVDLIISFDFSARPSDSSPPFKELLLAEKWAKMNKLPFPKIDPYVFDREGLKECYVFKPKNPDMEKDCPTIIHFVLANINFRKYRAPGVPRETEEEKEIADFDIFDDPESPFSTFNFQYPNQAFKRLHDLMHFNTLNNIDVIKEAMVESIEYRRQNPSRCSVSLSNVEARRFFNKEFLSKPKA
# Experimental: The PLA(2) activity was measured by quantitatively analyzing the fluorescent product of hydrolysis from 1,2-bis-(4,4-difluoro-5,7-dimethyl-4-bora-3a,4a-diaza-s-indecene-3-undecanoyl)-sn-glycero-3-phosphocholine (hereinafter referred to bis-BODIPY®FL C11—PC, Molecular Probes, Inc., B-7701) using activated U937 cells (human monoblastic lymphoma cell line) by inflammatory stimulus (Meshulam, T. et al., The journal of Biological Chemistry 267 (30): 21465-21470 (1992); and Solito, E. et al., British Journal of Pharmacology 124: 1675-1683 (1998).). The substrate bis-BODIPY®FL C11—PC is incorporated into cellular membranes, the proximity of the BODIPY FL fluorophores on adjacent phospholipid acyl chains causes fluorescence self-quenching. Separation of the fluorophores upon hydrolytic cleavage of one of the acyl chains by PLA(1) or the PLA(2) results in increased fluorescence. In the activated U937 by inflammatory stimulus, it is shown that this substrate should be cleaved enzymatically by IV-cPLA(2) from the feature of its behaviors including sensitivity profiles against the inhibitors.
# The human cell line U937 was purchased from Dai-Nippon Pharmaceuticals Co., Ltd. The cells were maintained by transferring every 3-4 days into RPMI 1640 medium (Sigma Chemical Co., R6504) supplemented with heat-inactivated 10% fetal bovine serum (Fetal Bovine Serum, Sigma Chemical Co., F 4135) in a 5% CO2 humidified atmosphere at 37° C. The cells were transferred into the culture medium described above, containing 1.2% (v/v) dimethylsulfoxide (hereinafter referred to as […], Nacalai tesque Co., Ltd., D 134-45), and pre-cultured for 96 to 120 hours so as to differentiate into the macrophage-like cells to be provided for the assay. The macrophage-like cells were collected and washed by centrifugation with the Assay medium (Dulbecco's phosphate buffered saline (hereinafter referred to as PBS)-2.2 mM glucose-2.5 μm albumin). Then, Phorbol 12-Myristate 13-Acetate (hereinafter referred to as TPA, Sigma Chemical Co., P 8139) was added to the Assay medium to be 1×10^−8M as the final concentration. Then, the macrophage-like cells were further cultured for an hour to be activated (Rzigalinski, B. A. & Rosenthal, M. D., Biochimica et Biophysica Acta 1223: 219-225 (1994); and Gonchar, M. V. et al., Biochemical and Biophysical Research Communication, 249: 829-832 (1998).).
# For preparing substrate liposome suspension, bis-BODIPY®FL C11—PC was combined with phosphatidylcholine (Sigma Chemical Co., P 7769) at 1:9 molar ratio in chloroform, and dried under nitrogen flow. The dried mixture was suspended with the Assay medium at 100 μg/mL, voltexed and sonicated for an hour on ice under dark condition.
# The test compound was dissolved with DMSO at 30 mM, and the solution diluted with either DMSO or the Assay medium before addition into the reaction mixture. The DMSO concentration in the reaction mixture was controlled so as to be no more than 0.1%. The 30-fold concentration of test compound solution was put into each well of MICRPTEST™ Tissue Culture Plate, 96 Well (Falcon, 3072) at a rate of 2.5 μL/well. To the respective well was added 25 μL/well of the activated U937 cell suspension ([…]), and the cells were pre-cultured for 120 min. at 37° C. in a 5% CO2 atmosphere incubator. 47.5 μL/well of the substrate liposome suspension with 1.5×10^−6M A23187 (Sigma Chemical Co., C 7522) was added into each well to prepare 75 μL/well of the total reaction mixture, followed by culture for 30 min. under the same conditions with shielding against light. 100 μL/well of 0.1% GEDTA (Dojindo Laboratories Co. Ltd., 348-01311) methanol solution was added into each well and mixed to stop the reaction. […]
# [1] = system: acetic acid-induced writhes; experiment: Acetic acid writhing; format: in vivo, ICR-strain male mouse; conditions: i.p., 10 to 20 min after acetic acid
# Experimental: This test was carried out referring to the method of Inoue, K., Motonaga, A. & Nishimura, T (Arzneimittel Forshung/Drug Research, 41 (1): 235-239 (1991)). More specifically, 7.5 mL/kg of 0.9% acetic acid solution was injected intraperitoneally into an ICR-strain male mouse (5 to 7 weeks old), and the induced writhes (characteristic behaviors of convulsive contracting the abdomen, twisting the body and/or extending the legs) were observed. Number of writhes of each mouse was measured during 10 to 20 min. period after acetic acid administration. The compound of the present invention was homogeneously suspended in 2% Tween 80/saline for injection use, and was injected intraperitoneally 30 min. before the induction by the acetic acid injection. Alternatively, the compound of the present invention was homogeneously suspended in 2% Tween 80/distilled water, and was administrated orally two hours before the induction by the acetic acid injection. The analgesic activity of the compounds according to the present invention was evaluated on the basis of the degree of inhibiting the number writhes by the administration of the compounds. As the positive control, indomethacin or aspirin was administrated. The analgesic activity of the compounds according to the present invention measured in this test were exemplified in Table 7.
# TPA-induced ear edema = format: in vivo, ICR-strain male mouse; conditions: topical, 0.3 mg/20 μL/ear × 2; 6 hours after TPA
# Experimental: This test was carried out referring to the method of Carlson, R. P. et al. (Agents and Actions, 17(2): 197-204 (1985).) and the method of Chang, J. (European Journal of Pharmacology, 142: 197-205 (1987).). […] 6 hours later, the thickness of each ear at the particular part was respectively measured three times using a digimatic micrometer to calculate the mean value. Ear edema was determined by subtracting the mean thickness of the left ear as without treatment from that of the right ear as TPA-applied. […] As the positive control, 100 mg/kg of Hydrocortisone (Sigma Chemical Co., H 4001) suspension was applied to the mouse similarly as for the compound of the present invention.
smiles,measurement,setting,value
"C[C@@H]1NC(=N[N+](=O)[O-])O[C@H]1c1ccc(Cl)cc1 (relative stereo) [Compound 1-10, trans-5-(4-chlorophenyl)-4-methyl-2-nitroiminooxazolidine]",inhibition at 0.1 µM,IV-cPLA(2),79%
same,melting point,,123 to 126 °C
"C[C@H]1[C@H](c2ccc(Cl)cc2)OC(=N[N+](=O)[O-])N1Cc1ccc(Cl)nc1 (relative stereo) [Compound 1-12, trans-5-(4-chlorophenyl)-4-methyl-3-(2-chloro-5-pyridylmethyl)-2-nitroiminooxazolidine]",inhibition at 0.1 µM,IV-cPLA(2),52%
same,Number of writhes (Mean ± S.E.),[1]; 1 mg/kg,10.0 ± 1.1
same,Ear Edema Inhibition (%),TPA-induced ear edema,79%
"CC(=O)Oc1ccccc1C(=O)O [Aspirin, aspirin, reference compound]",Number of writhes (Mean ± S.E.),[1]; 30 mg/kg,9.5 ± 2.0
CN=C1OC(c2ccc(C)cc2)C(C)N1C(=O)NC1CCCCO1 (centres unmarked) [Compound 1-22],Inhibition (%),IV-cPLA(2); 0.1 μM,84%
same,Number of writhes (Mean ± S.E.),[1]; 1 mg/kg,12.7 ± 4.1
same,Ear Edema Inhibition (%),TPA-induced ear edema,56%
CCOC(=O)CCC(NC(=O)N1C(=O)SC(c2ccc(Cl)cc2)C1C)C(=O)OCC (centres unmarked) [Compound 2-26],Inhibition (%),IV-cPLA(2); 0.1 μM,77%
same,Number of writhes (Mean ± S.E.),[1]; 0.3 mg/kg,9.8 ± 1.9
same,Ear Edema Inhibition (%),TPA-induced ear edema,86%
COC1CCCC(NC(=O)N2C(=O)OC(c3ccc4c(c3)CCCC4)C2C)O1 (centres unmarked) [Compound 2-135],Inhibition (%),IV-cPLA(2); 0.01 μM,64%
same,Number of writhes (Mean ± S.E.),[1]; 1 mg/kg,0.8 ± 0.8
same,Ear Edema Inhibition (%),TPA-induced ear edema,84%
Cc1ccc(C2SC(=O)N(C(=O)NC3CCCCO3)C2C)cc1 (centres unmarked) [Compound 2-189],Inhibition (%),IV-cPLA(2); 0.01 μM,86%
same,Number of writhes (Mean ± S.E.),[1]; 1 mg/kg,0.8 ± 0.5
same,Ear Edema Inhibition (%),TPA-induced ear edema,84%
"COc1ccc2c(c1)c(CC(=O)O)c(C)n2C(=O)c1ccc(Cl)cc1 [Indomethacin, indomethacin, reference compound]",Number of writhes (Mean ± S.E.),[1]; 3 mg/kg,13.8 ± 3.0
same,Number of writhes (Mean ± S.E.),[1]; 10 mg/kg,4.8 ± 0.9

# Source: patent US6762200B2, “Oxa(thia)zolidine derivative and anti-inflammatory drug” (Nippon Soda Co. Ltd., priority 2000, dated 2004)
